Results reported in patent publication US20260022142A1, “MACROCYCLIC IMMUNOMODULATORS” (Bristol-Myers Squibb Company, priority 2022, published 2026).
Bridge positions count the residues as written; N and C are the ends. Square brackets hold non-standard residues; d marks the D form. Peptide text beside a SMILES is read from it. * marks the point of attachment. ξ: configuration not given here. Phe(3-CF3) = N[C@@H](Cc1cccc(C(F)(F)F)c1)C(=O)O; Phe(4-COOH) = N[C@@H](Cc1ccc(C(=O)O)cc1)C(=O)O; Bip = N[C@@H](Cc1ccc(-c2ccccc2)cc1)C(=O)O; Abu(4,4,4-F3) = N[C@@H](CC(F)(F)F)C(=O)O; NH(CH2)14COOH = O=C(O)CCCCCCCCCCCCCCN*; Phe(3-Me) = Cc1cccc(C[C@H](N)C(=O)O)c1; NH(CH2)12COOH = O=C(O)CCCCCCCCCCCCN*; Val(3-OH) = CC(C)(O)[C@H](N)C(=O)O; Cha = N[C@@H](CC1CCCCC1)C(=O)O; Thr(3ξ) = CC(O)[C@H](N)C(=O)O; Carboxymethyl = O=C(O)C*; Orn = NCCC[C@H](N)C(=O)O; Dab = NCC[C@H](N)C(=O)O; AEEA = NCCOCCOCC(=O)O; CF3 = FC(F)(F)*

Biological target: T1, PD-1/PD-L1 interaction (PE-labeled human PD-L1-Ig binding to Jurkat cell line over-expressing human PD-1) (Homo sapiens, UniProt Q15116)
T1 construct: expressed in transfected cells; host or cells: Jurkat
Assay: Jurkat-PD-1 Cell Binding High-Content Screening Assay (CBA)
Assay type: cell-based
Details: Jurkat cell line over-expressing human PD-1; PE-labeled PD-L1-Ig 20 nM final; read-out: Jurkat hPD1-PDL1 IC50
How it was run: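 First, compound is added to PD-1-expressing Jurkat cells in serum-containing DMEM and left 2 h at 37° C. Next, PE-conjugated PD-L1-Ig is introduced at 20 nM final concentration for 1 hour. Finally, cells are fixed in 4% paraformaldehyde with Hoechst 33342, washed and imaged.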

T1 sequence (Q15116 25-288): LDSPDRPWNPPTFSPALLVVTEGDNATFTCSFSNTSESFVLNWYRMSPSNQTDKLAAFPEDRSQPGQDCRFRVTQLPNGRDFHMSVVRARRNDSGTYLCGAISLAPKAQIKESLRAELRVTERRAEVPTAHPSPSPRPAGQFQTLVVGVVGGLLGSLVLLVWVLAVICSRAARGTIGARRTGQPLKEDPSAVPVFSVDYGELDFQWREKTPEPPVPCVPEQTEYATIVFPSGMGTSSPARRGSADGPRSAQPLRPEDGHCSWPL

With CC(=O)NCCCC[C@@H]1NC(=O)[C@H](C(C)(C)O)NC(=O)[C@H](CC2CCCCC2)NC(=O)[C@H](CCN)NC(=O)[C@@H](CC(C)C)NC(=O)[C@H](CCCN)NC(=O)[C@H](Cc2ccc(OCC(=O)O)cc2)NC(=O)[C@H](Cc2ccc(-c3ccccc3)cc2)NC(=O)[C@H](Cc2ccc(OCC(=O)O)cc2)NC(=O)[C@H](Cc2cccc(C(F)(F)F)c2)NC(=O)[C@H](CC(=O)O)NC(=O)[C@H](Cc2ccc(OCC(=O)O)cc2)NC(=O)[C@H](Cc2ccc(OCC(=O)O)cc2)NC(=O)CSC[C@@H](C(=O)N[C@@H](CCN)C(=O)NCCOCCOCC(=O)NCCCCCCCCCCCCCCC(=O)O)NC1=O [Compound 3850] ({CH2CO}-Y(Carboxymethyl)Y(Carboxymethyl)D[Phe(3-CF3)]Y(Carboxymethyl)[Bip]Y(Carboxymethyl)[Orn][dL][Dab][Cha][Val(3-OH)]K(Ac)C[Dab][AEEA]-{NH(CH2)14COOH}; thioether N-14) as the compound, how does the IC50 read?
Its IC50 is 282 nM.

With Cc1cccc(C[C@@H]2NC(=O)[C@H](CC(=O)O)NC(=O)[C@H](Cc3ccc(OCC(=O)O)cc3)NC(=O)[C@H](C)NC(=O)CSC[C@@H](C(=O)N[C@@H](CCN)C(=O)NCCOCCOCC(=O)NCCCCCCCCCCCCCCC(=O)O)NC(=O)[C@H](Cc3cnc[nH]3)NC(=O)[C@H](C(C)(C)O)NC(=O)[C@H](CC3CCCCC3)NC(=O)[C@H](CCN)NC(=O)[C@@H](CC(C)C)NC(=O)[C@H](CCCN)NC(=O)[C@H](Cc3ccc(OCC(=O)O)cc3)NC(=O)[C@H](Cc3ccc(-c4ccccc4)cc3)NC(=O)[C@H](Cc3ccc(OCC(=O)O)cc3)NC2=O)c1 [Compound 3851] ({CH2CO}-AY(Carboxymethyl)D[Phe(3-Me)]Y(Carboxymethyl)[Bip]Y(Carboxymethyl)[Orn][dL][Dab][Cha][Val(3-OH)]HC[Dab][AEEA]-{NH(CH2)14COOH}; thioether N-14) as the compound, how does the IC50 read?
Its IC50 is 125 nM.

With CC(C)C[C@H]1NC(=O)[C@H](CCCN)NC(=O)[C@H](Cc2ccc(OCC(=O)O)cc2)NC(=O)[C@H](Cc2ccc(-c3ccccc3)cc2)NC(=O)[C@H](Cc2ccc(OCC(=O)O)cc2)NC(=O)[C@H](Cc2cccc(C(F)(F)F)c2)NC(=O)[C@H](CC(=O)O)NC(=O)[C@H](Cc2ccc(OCC(=O)O)cc2)NC(=O)[C@H](C)NC(=O)CSC[C@@H](C(=O)N[C@@H](CCN)C(=O)NCCCCCCCCCCCCCCC(=O)O)NC(=O)[C@H](Cc2cnc[nH]2)NC(=O)[C@H](C(C)(C)O)NC(=O)[C@H](CC2CCCCC2)NC(=O)[C@H](CCN)NC1=O [Compound 3852] ({CH2CO}-AY(Carboxymethyl)D[Phe(3-CF3)]Y(Carboxymethyl)[Bip]Y(Carboxymethyl)[Orn][dL][Dab][Cha][Val(3-OH)]HC[Dab]-{NH(CH2)14COOH}; thioether N-14) as the compound, how does the IC50 read?
The IC50 was 142 nM.

Cc1cccc(C[C@@H]2NC(=O)[C@H](CC(=O)O)NC(=O)[C@H](Cc3ccc(OCC(=O)O)cc3)NC(=O)[C@H](C)NC(=O)CSC[C@@H](C(=O)N[C@@H](CCN)C(=O)NCCOCCOCC(=O)NCCOCCOCC(=O)NCCCCCCCCCCCCCCC(=O)O)NC(=O)[C@H](CO)NC(=O)[C@H](C(C)(C)O)NC(=O)[C@H](CC3CCCCC3)NC(=O)[C@H](CCN)NC(=O)[C@@H](CC(C)C)NC(=O)[C@H](CCCN)NC(=O)[C@H](Cc3ccc(C(=O)O)cc3)NC(=O)[C@H](Cc3ccc(-c4ccccc4)cc3)NC(=O)[C@H](Cc3ccc(C(=O)O)cc3)NC2=O)c1 [Compound 3853] ({CH2CO}-AY(Carboxymethyl)D[Phe(3-Me)][Phe(4-COOH)][Bip][Phe(4-COOH)][Orn][dL][Dab][Cha][Val(3-OH)]SC[Dab][AEEA][AEEA]-{NH(CH2)14COOH}; thioether N-14) was tested. Which IC50 did it give?
Its IC50 is 104 nM.

Which IC50 does the source give for Cc1cccc(C[C@@H]2NC(=O)[C@H](CC(=O)O)NC(=O)[C@H](Cc3ccc(OCC(=O)O)cc3)NC(=O)[C@H](C)NC(=O)CSC[C@@H](C(=O)N[C@@H](CCN)C(=O)NCCOCCOCC(=O)NCCOCCOCC(=O)NCCOCCOCC(=O)NCCCCCCCCCCCCCCC(=O)O)NC(=O)[C@H](CO)NC(=O)[C@H](C(C)(C)O)NC(=O)[C@H](CC3CCCCC3)NC(=O)[C@H](CCN)NC(=O)[C@@H](CC(C)C)NC(=O)[C@H](CCCN)NC(=O)[C@H](Cc3ccc(C(=O)O)cc3)NC(=O)[C@H](Cc3ccc(-c4ccccc4)cc3)NC(=O)[C@H](Cc3ccc(C(=O)O)cc3)NC2=O)c1 [Compound 3854] ({CH2CO}-AY(Carboxymethyl)D[Phe(3-Me)][Phe(4-COOH)][Bip][Phe(4-COOH)][Orn][dL][Dab][Cha][Val(3-OH)]SC[Dab][AEEA][AEEA][AEEA]-{NH(CH2)14COOH}; thioether N-14) here?
The IC50 was 45.2 nM.

For Cc1cccc(C[C@@H]2NC(=O)[C@H](CC(=O)O)NC(=O)[C@H](Cc3ccc(OCC(=O)O)cc3)NC(=O)[C@H](C)NC(=O)CSC[C@@H](C(=O)N[C@@H](CCN)C(=O)NCCOCCOCC(=O)NCCOCCOCC(=O)NCCCCCCCCCCCCCCC(=O)O)NC(=O)[C@H](Cc3cnc[nH]3)NC(=O)[C@H](C(C)(C)O)NC(=O)[C@H](CC3CCCCC3)NC(=O)[C@H](CCN)NC(=O)[C@@H](CC(C)C)NC(=O)[C@H](CCCN)NC(=O)[C@H](Cc3ccc(C(=O)O)cc3)NC(=O)[C@H](Cc3ccc(-c4ccccc4)cc3)NC(=O)[C@H](Cc3ccc(C(=O)O)cc3)NC2=O)c1 [Compound 3855] ({CH2CO}-AY(Carboxymethyl)D[Phe(3-Me)][Phe(4-COOH)][Bip][Phe(4-COOH)][Orn][dL][Dab][Cha][Val(3-OH)]HC[Dab][AEEA][AEEA]-{NH(CH2)14COOH}; thioether N-14), which IC50 is on record?
Its IC50 is 119 nM.

How did the IC50 turn out when Cc1cccc(C[C@@H]2NC(=O)[C@H](CC(=O)O)NC(=O)[C@H](Cc3ccc(OCC(=O)O)cc3)NC(=O)[C@H](C)NC(=O)CSC[C@@H](C(=O)N[C@@H](CCN)C(=O)NCCOCCOCC(=O)NCCOCCOCC(=O)NCCOCCOCC(=O)NCCCCCCCCCCCCCCC(=O)O)NC(=O)[C@H](Cc3cnc[nH]3)NC(=O)[C@H](C(C)(C)O)NC(=O)[C@H](CC3CCCCC3)NC(=O)[C@H](CCN)NC(=O)[C@@H](CC(C)C)NC(=O)[C@H](CCCN)NC(=O)[C@H](Cc3ccc(C(=O)O)cc3)NC(=O)[C@H](Cc3ccc(-c4ccccc4)cc3)NC(=O)[C@H](Cc3ccc(C(=O)O)cc3)NC2=O)c1 [Compound 3856] ({CH2CO}-AY(Carboxymethyl)D[Phe(3-Me)][Phe(4-COOH)][Bip][Phe(4-COOH)][Orn][dL][Dab][Cha][Val(3-OH)]HC[Dab][AEEA][AEEA][AEEA]-{NH(CH2)14COOH}; thioether N-14) was run?
The IC50 was 94.2 nM.

CC(C)C[C@H]1NC(=O)[C@H](Cc2cnc[nH]2)NC(=O)[C@H](Cc2ccc(C(=O)O)cc2)NC(=O)[C@H](Cc2ccc(-c3ccccc3)cc2)NC(=O)[C@H](Cc2ccc(C(=O)O)cc2)NC(=O)[C@H](Cc2cccc(C(F)(F)F)c2)NC(=O)[C@H](CC(=O)O)NC(=O)[C@H](Cc2ccc(OCC(=O)O)cc2)NC(=O)[C@H](CC(F)(F)F)NC(=O)CSC[C@@H](C(=O)N[C@@H](CCN)C(=O)NCCCCCCCCCCCCC(=O)O)NC(=O)[C@H](CO)NC(=O)[C@H](C(C)(C)O)NC(=O)[C@H](CC2CCCCC2)NC(=O)[C@H](CCN)NC1=O [Compound 3857] ({CH2CO}-[Abu(4,4,4-F3)]Y(Carboxymethyl)D[Phe(3-CF3)][Phe(4-COOH)][Bip][Phe(4-COOH)]H[dL][Dab][Cha][Val(3-OH)]SC[Dab]-{NH(CH2)12COOH}; thioether N-14) was tested. Which IC50 did it give?
Its IC50 is 166 nM.

How did the IC50 turn out when CC(=O)NCCCC[C@@H]1NC(=O)[C@H](C(C)(C)O)NC(=O)[C@H](CC2CCCCC2)NC(=O)[C@H](CCN)NC(=O)[C@@H](CC(C)C)NC(=O)[C@H](CCCN)NC(=O)[C@H](Cc2ccc(C(=O)O)cc2)NC(=O)[C@H](Cc2ccc(-c3ccccc3)cc2)NC(=O)[C@H](Cc2ccc(C(=O)O)cc2)NC(=O)[C@H](Cc2cccc(C)c2)NC(=O)[C@H](CC(=O)O)NC(=O)[C@H](Cc2ccc(OC(F)(F)F)cc2)NC(=O)[C@H](Cc2ccc(OCC(=O)O)cc2)NC(=O)CSC[C@@H](C(=O)N[C@@H](CCN)C(=O)NCCOCCOCC(=O)NCCCCCCCCCCCCC(=O)O)NC1=O [Compound 3859] ({CH2CO}-Y(Carboxymethyl)Y(CF3)D[Phe(3-Me)][Phe(4-COOH)][Bip][Phe(4-COOH)][Orn][dL][Dab][Cha][Val(3-OH)]K(Ac)C[Dab][AEEA]-{NH(CH2)12COOH}; thioether N-14) was run?
Its IC50 is 52.7 nM.

Which IC50 does the source give for CC(C)C[C@H]1NC(=O)[C@H](Cc2cnc[nH]2)NC(=O)[C@H](Cc2ccc(OCC(=O)O)cc2)NC(=O)[C@H](Cc2ccc(-c3ccccc3)cc2)NC(=O)[C@H](Cc2ccc(C(=O)O)cc2)NC(=O)[C@H](Cc2cccc(C(F)(F)F)c2)NC(=O)[C@H](CC(=O)O)NC(=O)[C@H](Cc2ccc(OCC(=O)O)cc2)NC(=O)[C@H](C(C)O)NC(=O)CSC[C@@H](C(=O)N[C@@H](CCN)C(=O)NCCCCCCCCCCCCCCC(=O)O)NC(=O)[C@H](C(C)O)NC(=O)[C@H](C(C)(C)O)NC(=O)[C@H](CC2CCCCC2)NC(=O)[C@H](CCN)NC1=O (stereo partly drawn) [Compound 3861] ({CH2CO}-[Thr(3ξ)]Y(Carboxymethyl)D[Phe(3-CF3)][Phe(4-COOH)][Bip]Y(Carboxymethyl)H[dL][Dab][Cha][Val(3-OH)][Thr(3ξ)]C[Dab]-{NH(CH2)14COOH}; thioether N-14) here?
The IC50 was 348 nM.

CC(C)C[C@H]1NC(=O)[C@H](Cc2cnc[nH]2)NC(=O)[C@H](Cc2ccc(OCC(=O)O)cc2)NC(=O)[C@H](Cc2ccc(-c3ccccc3)cc2)NC(=O)[C@H](Cc2ccc(C(=O)O)cc2)NC(=O)[C@H](Cc2cccc(C(F)(F)F)c2)NC(=O)[C@H](CC(=O)O)NC(=O)[C@H](Cc2ccc(OCC(=O)O)cc2)NC(=O)[C@H](C)NC(=O)CSC[C@@H](C(=O)N[C@@H](CCN)C(=O)NCCCCCCCCCCCCCCC(=O)O)NC(=O)[C@H](C(C)O)NC(=O)[C@H](C(C)(C)O)NC(=O)[C@H](CC2CCCCC2)NC(=O)[C@H](CCN)NC1=O (stereo partly drawn) [Compound 3862] ({CH2CO}-AY(Carboxymethyl)D[Phe(3-CF3)][Phe(4-COOH)][Bip]Y(Carboxymethyl)H[dL][Dab][Cha][Val(3-OH)][Thr(3ξ)]C[Dab]-{NH(CH2)14COOH}; thioether N-14) was tested. Which IC50 did it give?
Its IC50 is 368 nM.
